Results from paper PMC2880318 (Immunome Research, 2010).
Where a SMILES comes first, the peptide text is derived from it.

Biological target: purified HLA-DRB1*0101 (Homo sapiens, UniProt P01903+P01911, A100R/D57E/F55L/F60I/F76Y/I96L/L162R/M171V/P40L/Q125E/R42F/V115G/Y59C)
Test: biochemical
Format: binding

Question: For `CC[C@H](C)[C@H](NC(=O)[C@H](Cc1c[nH]c2ccccc12)NC(=O)[C@H](CC(=O)O)NC(=O)[C@H](Cc1ccccc1)NC(=O)[C@H](CCC(=O)O)NC(=O)[C@@H]1CCCN1C(=O)[C@H](CO)NC(=O)CNC(=O)[C@@H](N)CCCCN)C(=O)N[C@@H](CC(C)C)C(=O)NCC(=O)N[C@@H](Cc1c[nH]c2ccccc12)C(=O)N[C@H](C(=O)N[C@H](C(=O)N[C@@H](CCCCN)C(=O)O)[C@@H](C)CC)[C@@H](C)O` [GTOV GPC131-145] (H-KGSPEFDWILGWTIK-OH), which IC50 is on record?
Answer: Its IC50 is 1.7 nM.

Question: With `CC[C@H](C)[C@H](NC(=O)[C@H](CC(C)C)NC(=O)[C@H](CCCNC(=N)N)NC(=O)[C@H](Cc1c[nH]cn1)NC(=O)[C@H](Cc1ccc(O)cc1)NC(=O)[C@H](CCC(=O)O)NC(=O)[C@H](CCC(N)=O)NC(=O)[C@@H](N)CC(=O)O)C(=O)N[C@@H](Cc1c[nH]cn1)C(=O)N[C@@H](CO)C(=O)N[C@@H](CC(C)C)C(=O)N[C@@H](CO)C(=O)N[C@@H](CCCCN)C(=O)N[C@H](C(=O)N[C@@H](CO)C(=O)O)[C@@H](C)O` [GTOV L181-195] (H-DQEYHRLIHSLSKTS-OH) as the molecule, how does the IC50 read?
Answer: The IC50 was 0.34 nM.

Question: How did the IC50 turn out when `CC[C@H](C)[C@H](NC(=O)[C@H](CC(=O)O)NC(=O)[C@H](CC(C)C)NC(=O)[C@@H](NC(=O)[C@@H](N)CCCNC(=N)N)C(C)C)C(=O)N[C@@H](CC(C)C)C(=O)N[C@H](C(=O)N[C@@H](C)C(=O)N[C@@H](CCCNC(=N)N)C(=O)N[C@@H](CCCNC(=N)N)C(=O)N[C@@H](CC(C)C)C(=O)N[C@@H](CC(C)C)C(=O)N[C@@H](CC(C)C)C(=O)N[C@@H](CCCCN)C(=O)N[C@@H](CCCCN)C(=O)O)C(C)C` [GTOV L391-405] (H-RVLDILVARRLLLKK-OH) was run?
Answer: Its IC50 is 0.19 nM.

Question: How did the IC50 turn out when `CC[C@H](C)[C@H](N)C(=O)N[C@@H](CCC(N)=O)C(=O)N[C@@H](CC(C)C)C(=O)N[C@H](C(=O)N[C@@H](Cc1ccccc1)C(=O)N[C@@H](CO)C(=O)N[C@@H](CO)C(=O)N[C@@H](CCSC)C(=O)N[C@H](C(=O)N[C@@H](CC(N)=O)C(=O)N1CCC[C@H]1C(=O)N[C@@H](CC(C)C)C(=O)N[C@H](C(=O)N[C@H](C(=O)N[C@H](C(=O)O)[C@@H](C)O)[C@@H](C)CC)C(C)C)[C@@H](C)CC)C(C)C` [GTOV L1826-1840] (H-IQLVFSSMINPLVIT-OH) was run?
Answer: The IC50 was 0.23 nM.

Question: How did the IC50 turn out when `CC[C@H](C)[C@H](NC(=O)[C@@H](NC(=O)[C@H](CC(C)C)NC(=O)[C@H](C)NC(=O)[C@@H]1CCCN1C(=O)[C@H](CCSC)NC(=O)[C@H](CO)NC(=O)CNC(=O)[C@H](Cc1ccccc1)NC(=O)[C@H](CCC(N)=O)NC(=O)[C@H](CC(N)=O)NC(=O)[C@H](CC(N)=O)NC(=O)[C@H](CC(C)C)NC(=O)[C@@H](N)CCCCN)[C@@H](C)O)C(=O)N[C@@H](C)C(=O)O` [GTOV NP166-180] was run?
Answer: The IC50 was 0.12 nM.

Question: `CC(C)C[C@H](NC(=O)CNC(=O)[C@H](CC(C)C)NC(=O)[C@H](CO)NC(=O)[C@@H](NC(=O)[C@H](CC(C)C)NC(=O)[C@H](C)NC(=O)[C@H](CCC(N)=O)NC(=O)[C@@H](NC(=O)[C@@H](NC(=O)[C@H](CC(N)=O)NC(=O)[C@@H](N)CC(N)=O)C(C)C)C(C)C)[C@@H](C)O)C(=O)N[C@@H](CC(C)C)C(=O)N[C@@H](Cc1ccc(O)cc1)C(=O)N[C@H](C(=O)O)[C@@H](C)O` [GTOV NP191-205] was tested. Which IC50 did it give?
Answer: The IC50 was 0.29 nM.

Question: How did the IC50 turn out when `CC[C@H](C)[C@H](N)C(=O)N[C@@H](CO)C(=O)NCC(=O)N[C@@H](Cc1ccc(O)cc1)C(=O)N[C@@H](CC(N)=O)C(=O)N[C@@H](Cc1ccccc1)C(=O)N[C@@H](CO)C(=O)N[C@@H](CC(C)C)C(=O)N[C@@H](CO)C(=O)N[C@@H](C)C(=O)N[C@@H](C)C(=O)N[C@H](C(=O)N[C@@H](CCCCN)C(=O)N[C@@H](C)C(=O)NCC(=O)O)C(C)C` [GTOV NP236-250] was run?
Answer: Its IC50 is 0.12 nM.

Question: For `CC[C@H](C)[C@H](N)C(=O)N1CCC[C@H]1C(=O)N[C@H](C(=O)N[C@@H](CCC(N)=O)C(=O)N[C@@H](CC(C)C)C(=O)N[C@@H](CC(C)C)C(=O)N1CCC[C@H]1C(=O)N[C@@H](CC(N)=O)C(=O)N[C@H](C(=O)N[C@@H](CC(C)C)C(=O)N[C@H](C(=O)N[C@@H](Cc1ccccc1)C(=O)N[C@@H](CCC(N)=O)C(=O)N[C@@H](C)C(=O)N[C@@H](CCCCN)C(=O)O)C(C)C)[C@@H](C)O)[C@@H](C)CC` [GTOV NP541-555] (H-IPIQLLPNTLVFQAK-OH), which IC50 is on record?
Answer: Its IC50 is 0.25 nM.

Question: `CC(C)C[C@H](NC(=O)[C@H](C)NC(=O)[C@H](CC(C)C)NC(=O)[C@H](Cc1ccccc1)NC(=O)[C@@H](NC(=O)[C@H](Cc1ccccc1)NC(=O)[C@@H](N)Cc1ccccc1)C(C)C)C(=O)N[C@@H](C)C(=O)NCC(=O)N[C@@H](CCCNC(=N)N)C(=O)N[C@@H](CO)C(=O)N[C@@H](CS)C(=O)N[C@H](C(=O)N[C@@H](CCC(=O)O)C(=O)N[C@@H](CCC(=O)O)C(=O)O)[C@@H](C)O` [JUNV GPC46-60] was tested. Which IC50 did it give?
Answer: Its IC50 is 0.23 nM.

Question: `CC[C@H](C)[C@H](NC(=O)[C@H](CC(=O)O)NC(=O)[C@H](CC(C)C)NC(=O)[C@H](CC(C)C)NC(=O)[C@H](CCCNC(=N)N)NC(=O)[C@H](CC(=O)O)NC(=O)[C@H](CC(N)=O)NC(=O)[C@@H](NC(=O)[C@H](CC(C)C)NC(=O)[C@H](CCSC)NC(=O)[C@H](CC(C)C)NC(=O)[C@H](CCSC)NC(=O)[C@H](CCC(N)=O)NC(=O)CNC(=O)[C@@H](N)C(C)C)C(C)C)C(=O)O` [JUNV L381-395] was tested. Which IC50 did it give?
Answer: The IC50 was 0.21 nM.

Question: How did the IC50 turn out when `CC[C@H](C)[C@H](NC(=O)[C@H](C)NC(=O)[C@H](CCC(=O)O)NC(=O)[C@H](CC(C)C)NC(=O)[C@@H](NC(=O)[C@H](CC(=O)O)NC(=O)[C@H](CC(C)C)NC(=O)[C@H](CC(C)C)NC(=O)[C@@H](N)CCCNC(=N)N)[C@@H](C)CC)C(=O)N[C@@H](CCCCN)C(=O)N[C@@H](CC(C)C)C(=O)N[C@H](C(=O)N[C@@H](CCCNC(=N)N)C(=O)N[C@@H](CCCCN)C(=O)N[C@@H](CCCCN)C(=O)O)[C@@H](C)CC` [JUNV L391-405] was run?
Answer: Its IC50 is 0.48 nM.

Question: Which IC50 does the source give for `CSCC[C@H](NC(=O)[C@H](CCC(N)=O)NC(=O)[C@@H](NC(=O)[C@H](Cc1c[nH]c2ccccc12)NC(=O)[C@@H](N)CCCCN)C(C)C)C(=O)N[C@@H](CS)C(=O)N[C@@H](CO)C(=O)N[C@@H](CCCNC(=N)N)C(=O)N[C@H](C(=O)N[C@@H](CC(C)C)C(=O)N[C@@H](CCCCN)C(=O)N[C@@H](CC(N)=O)C(=O)N[C@@H](CO)C(=O)N[C@@H](Cc1c[nH]cn1)C(=O)N[C@@H](CCC(N)=O)C(=O)O)[C@@H](C)O` [JUNV L411-425] here?
Answer: Its IC50 is 1.1 nM.

Question: For `CC[C@H](C)[C@H](NC(=O)[C@H](CC(=O)O)NC(=O)[C@H](CC(N)=O)NC(=O)[C@H](Cc1ccccc1)NC(=O)[C@@H](NC(=O)[C@H](CCCCN)NC(=O)[C@H](CCCNC(=N)N)NC(=O)[C@H](C)NC(=O)[C@H](CS)NC(=O)[C@H](CC(N)=O)NC(=O)[C@H](CCCNC(=N)N)NC(=O)[C@@H](NC(=O)[C@H](Cc1ccccc1)NC(=O)[C@@H](N)CCSC)[C@@H](C)CC)C(C)C)C(=O)N[C@@H](CCCCN)C(=O)O` [JUNV L1491-1505], which IC50 is on record?
Answer: Its IC50 is 2 nM.

Question: With `CC(C)[C@H](NC(=O)[C@H](C)NC(=O)[C@H](CCCCN)NC(=O)[C@@H]1CCCN1C(=O)[C@H](CCCCN)NC(=O)[C@@H](NC(=O)[C@H](C)NC(=O)[C@H](Cc1c[nH]c2ccccc12)NC(=O)[C@H](Cc1ccccc1)NC(=O)[C@H](Cc1ccccc1)NC(=O)[C@H](CC(N)=O)NC(=O)[C@H](CCCCN)NC(=O)[C@@H](N)CC(N)=O)C(C)C)C(=O)N[C@@H](CCCNC(=N)N)C(=O)N[C@@H](CCC(N)=O)C(=O)O` [JUNV L1711-1725] as the molecule, how does the IC50 read?
Answer: Its IC50 is 0.06 nM.
